Results published in ChEMBL document CHEMBL5107958, “Phosphoramidate Prodrugs Continue to Deliver, The Journey of Remdesivir (GS-5734) from RSV to SARS-CoV-2” (ACS Med Chem Lett, 2022).

Experiments:
Hepatitis C virus [1] = assay: Antiviral activity against HCV assessed as reduction in viral replication by measuring monophosphate prodrug metabolite; format: functional, organism-based, Hepacivirus hominis
Hepatitis C virus [2] = assay: Antiviral activity against HCV assessed as reduction in viral replication by measuring parent nucleoside compound; format: functional, organism-based, Hepacivirus hominis
[3] = AUC (0 to infinity) in cynomolgus monkey at 5 mg/kg, po measured for 0.25 to 4 hrs post-administration; format: ADME, organism-based, Macaca fascicularis; set-up: time upper 4 hrs, dose 5 mg/kg, time lower 0.25 hrs, route po; details: in vivo
[4] = Prodrug conversion in cynomolgus monkey assessed as AUC (0 to last) of parent nucleoside compound at 5 mg/kg, po measured for 0.25 to 4 hrs post-administration; format: ADME, organism-based, Macaca fascicularis; set-up: time lower 0.25 hrs, dose 5 mg/kg, time upper 4 hrs, route po; details: in vivo
[5] = AUC (0 to infinity) in dog at 5 mg/kg, po via gavage measured for 0.25 to 24 hrs post-administration; format: ADME, organism-based, Canis lupus familiaris; set-up: dose 5 mg/kg, time upper 24 hrs, time lower 0.25 hrs, route po; details: in vivo
[6] = Prodrug conversion in dog assessed as AUC (0 to last) of parent nucleoside compound at 5 mg/kg, po via gavage measured for 0.25 to 24 hrs post-administration; format: ADME, organism-based, Canis lupus familiaris; set-up: time upper 24 hrs, time lower 0.25 hrs, dose 5 mg/kg, route po; details: in vivo
[7] = AUC (0 to infinity) in Beagle dog at 3 mg/kg, po via gavage measured for 0.08 to 24 hrs post-dose; format: ADME, organism-based, Canis lupus familiaris; set-up: time lower 0.08 hrs, dose 3 mg/kg, time upper 24 hrs, route po; details: in vivo
[8] = Half life in Beagle dog at 0.5 mg/kg, iv measured for 0.08 to 24 hrs post-dose; format: ADME, organism-based, Canis lupus familiaris; details: in vivo, time 0.08-24 hrs
[9] = Oral bioavailability in Beagle dog at 3 mg/kg administered via gavage measured for 0.08 to 24 hrs post-dose; format: ADME, organism-based, Canis lupus familiaris; details: in vivo, time 0.08-24 hrs
[10] = AUC (0 to infinity) in Beagle dog at 0.5 mg/kg, iv measured for 0.08 to 24 hrs post-dose; format: ADME, organism-based, Canis lupus familiaris; set-up: dose 0.5 mg/kg, time upper 24 hrs, time lower 0.08 hrs, route iv; details: in vivo
[11] = Volume of distribution at steady state in Beagle dog at 0.5 mg/kg, iv measured for 0.08 to 24 hrs post-dose; format: ADME, organism-based, Canis lupus familiaris; details: in vivo, time 0.08-24 hrs, read-out: Vdss
[12] = AUC (0 to infinity) in overnight fasted dog at 100 mg/kg, po measured upto 24 hrs; format: ADME, organism-based, Canis lupus familiaris; set-up: dose 100 mg/kg, time < 24 hrs, route po; details: in vivo
[13] = Prodrug conversion in overnight fasted dog assessed as AUC (0 to last) of parent nucleoside compound at 100 mg/kg, po measured upto 24 hrs; format: ADME, organism-based, Canis lupus familiaris; set-up: dose 100 mg/kg, time < 24 hrs, route po; details: in vivo
[14] = Prodrug conversion in cynomolgus monkey lung assessed as triphosphate metabolite formation at 30 mg/kg, po measured after 24 hrs; format: ADME, organism-based, Macaca fascicularis; details: in vivo
[15] = AUC (0 to infinity) in cynomolgus monkey at 30 mg/kg, po; format: ADME, organism-based, Macaca fascicularis; set-up: time infinity, dose 30 mg/kg, route po; details: in vivo
[16] = Prodrug conversion in cynomolgus monkey assessed as AUC (0 to last) of parent nucleoside compound at 30 mg/kg, po; format: ADME, organism-based, Macaca fascicularis; set-up: time 0 - last, dose 30 mg/kg, route po; details: in vivo
SARS-CoV-2 [17] = assay: Antiviral activity against SARS-CoV-2 infected in human Caco-2 cells assessed as reduction in viral replication at MOI of 0.01 measured after 72 hrs by qRT-PCR analysis; format: functional, organism-based; details: Severe acute respiratory syndrome coronavirus 2, Caco-2, 72 h
[18] = tested on: Middle East respiratory syndrome-related coronavirus; assay: Antiviral activity against MERS-CoV infected in HAE cells assessed as reduction in viral replication at MOI of 0.5 incubated for 3 hrs followed by virus removal measured after 48 hrs by Hoechst 33258 staining based assay; format: functional, organism-based
SARS-CoV-2 [19] = assay: Antiviral activity against SARS-CoV-2 infected in human Huh-7 cells assessed as reduction in virus-induced cytopathic effect at MOI of 0.0037 measured after 4 days by MTS assay; format: functional, organism-based; details: Severe acute respiratory syndrome coronavirus 2, Huh-7, 96 h
Marburgvirus = assay: Antiviral activity against MARV Rec. Bat371-GFP infected in human Huh-7 cells assessed as reduction in viral replication incubated for 48 to 144 hrs by fluorescence based assay; format: functional, organism-based; details: Orthomarburgvirus
SARS-CoV-2 [20] = assay: Antiviral activity against SARS-CoV-2 infected in human A549 cells expressing hACE2 assessed as reduction in viral replication at MOI of 0.025 incubated for 48 hrs by luciferase based assay; format: functional, organism-based; details: Severe acute respiratory syndrome coronavirus 2, A549, 48 h
Ebolavirus [21] = assay: Antiviral activity against Ebola infected in human macrophages assessed as reduction in viral replication; format: functional, organism-based; details: Orthoebolavirus, Macrophage
Ebolavirus [22] = assay: Antiviral activity against Ebola infected in human HeLa cells assessed as reduction in viral replication; format: functional, organism-based; details: Orthoebolavirus
Measles morbillivirus [23] = assay: Antiviral activity against Measles virus infected in HMVEC cells assessed as reduction in viral replication; format: functional, organism-based
SARS-CoV-2 [24] = assay: Antiviral activity against SARS-CoV-2 infected in human PSC-derived lung epithelial cells assessed as reduction in viral replication; format: functional, organism-based; details: Severe acute respiratory syndrome coronavirus 2, Epithelial cell
SARS-CoV-2 [25] = assay: Antiviral activity against SARS-CoV-2 infected in human Calu-3 2B4 cells assessed as reduction in viral replication at MOI of 0.01 preincubated for 2 hrs followed by viral infection for 30 mins and subsequent virus removal and addition of medium containing compound measured after 72 hrs by RT-qPCR analysis; format: functional, organism-based; details: Severe acute respiratory syndrome coronavirus 2, Calu-3 2B4
Nipah virus [26] = assay: Antiviral activity against Nipah M1999 infected in human HeLa cells assessed as reduction in viral replication incubated for 48 to 144 hrs by reporter virus assay; format: functional, organism-based; details: Henipavirus nipahense
Measles morbillivirus [27] = assay: Antiviral activity against Measles Rec.rMVEZGFP(3) infected in human HeLa cells assessed as reduction in viral replication incubated for 48 to 144 hrs by fluorescence based assay; format: functional, organism-based
SARS-CoV-2 [28] = assay: Antiviral activity against SARS-CoV-2 infected in human Calu-3 cells assessed as reduction in viral replication at MOI of 0.01 measured after 72 hrs by qRT-PCR analysis; format: functional, organism-based; details: Severe acute respiratory syndrome coronavirus 2, Calu-3, 72 h
SARS-CoV = assay: Antiviral activity against SARS-CoV infected in HAE cells assessed as reduction in viral replication at MOI of 0.5 preincubated for 3 hrs followed by virus removal measured after 48 hrs by Hoechst 33258 staining based assay; format: functional, organism-based; details: Severe acute respiratory syndrome-related coronavirus
SARS-CoV-2 [29] = assay: Antiviral activity against SARS-CoV-2 infected in African green monkey Vero E6 cells assessed as reduction in viral replication; format: functional, organism-based; details: Severe acute respiratory syndrome coronavirus 2, Vero C1008
Nipah virus [30] = assay: Antiviral activity against Nipah B2004 infected in human NCI-H358 cells assessed as reduction in viral replication incubated for 48 to 144 hrs by reporter virus assay; format: functional, organism-based; details: Henipavirus nipahense
Hepatitis C virus [31] = assay: Antiviral activity against HCV infected in human Huh-7 cells expressing Ces1 assessed as reduction in viral replication by measuring monophosphate prodrug metabolite; format: functional, organism-based, Hepacivirus hominis

For `CC(C)OC(=O)[C@H](C)N[P@](=O)(OC[C@H]1O[C@@H](n2ccc(=O)[nH]c2=O)[C@@](C)(F)[C@@H]1O)Oc1ccccc1`, the EC50 (Hepatitis C virus [1]) was 420 nM, the EC50 (Hepatitis C virus [2]) was greater than 50000 nM and the AUC(0-inf) [3] was 0.16 µM·h. It also gave an AUClast [4] of 0.12 µM·h, an AUC(0-inf) [5] of 0.78 µM·h and an AUClast [6] of 27 µM·h.
Molecule `CC(C)OC(=O)[C@H](C)N[P@](=O)(OC[C@H]1O[C@@](C#N)(c2cnc3c(N)ncnn23)[C@](C)(O)[C@@H]1OC(=O)C(C)C)Oc1ccccc1` has an EC50 (Hepatitis C virus [1]) of 460 nM and an EC50 (Hepatitis C virus [2]) greater than 89000 nM.
`CCOC(=O)[C@H](C)N[P@@]1(=O)OC[C@H]2O[C@@H](n3cnc4c(OCC)nc(N)nc43)[C@](C)(F)[C@@H]2O1` showed an AUC(0-inf) [7] of 1.6 µM·h, a half-life [8] of 18 min and a bioavailability [9] of 44%. For the same molecule, the AUC(0-inf) [10] was 0.61 µM·h and the Vd [11] was 0.5 L/kg.
For `COC(=O)[C@H](C)NP(=O)(OC[C@@H]1C=C[C@H](n2cc(C)c(=O)[nH]c2=O)O1)Oc1ccc(Br)cc1` (stereo not given in full), the AUC(0-inf) [12] was 23.1 µM·h and the AUClast [13] was 262 µM·h.
Molecule `CNc1nc(N)nc2c1ncn2[C@@H]1O[C@H](COP(=O)(N[C@@H](C)C(=O)OC(C)C)Oc2ccccc2)[C@@H](O)[C@@]1(C)F` (stereo not given in full) [BEMNIFOSBUVIR] has an EC50 (Hepatitis C virus [1]) of 13 nM and an EC50 (Hepatitis C virus [2]) of 69000 nM.
Work on `CNc1nc(N)nc2c1ncn2[C@@H]1O[C@H](CO[P@@](=O)(N[C@@H](C)C(=O)OC(C)C)Oc2ccccc2)[C@@H](O)[C@@]1(C)F` [BEMNIFOSBUVIR] yielded a Drug metabolism [14] of 0.14 nmol/g, an AUC(0-inf) [15] of 0.44 µM·h and an AUClast [16] of 1.56 µM·h.
Work on `COc1nc(N)nc2c1ncn2[C@@H]1O[C@H](COP(=O)(N[C@@H](C)C(=O)OCC(C)(C)C)Oc2cccc3ccccc23)[C@@H](O)[C@@]1(C)O` (stereo not given in full) [BMS-986094] yielded an EC50 (Hepatitis C virus [1]) of 35 nM, an EC50 (Hepatitis C virus [2]) of 3500 nM and an AUC(0-inf) [15] of 0.026 µM·h.
For `N#C[C@@]1(c2ccc3c(N)ncnn23)O[C@H](CO)[C@@H](O)[C@H]1O` [GS-441524], the EC50 (SARS-CoV-2 [17]) was 80 nM, the EC50 [18] was 860 nM and the EC50 (SARS-CoV-2 [19]) was 1100 nM. For the same molecule, the EC50 (Marburgvirus) was 1900 nM, the EC50 (SARS-CoV-2 [20]) was 869 nM and the EC50 (Ebolavirus [21]) was greater than 20000 nM. The EC50 (Ebolavirus [22]) was greater than 20000 nM, the EC50 (Measles morbillivirus [23]) was 770 nM and the EC50 (SARS-CoV-2 [24]) was 740 nM. For the same molecule, the EC50 (SARS-CoV-2 [25]) was 620 nM, the EC50 (Nipah virus [26]) was 2120 nM and the EC50 (Measles morbillivirus [27]) was 1000 nM. The EC50 (SARS-CoV-2 [28]) was 250 nM, the EC50 (SARS-CoV) was 180 nM and the EC50 (SARS-CoV-2 [29]) was 470 nM. It also gave an EC50 (Nipah virus [30]) of 2460 nM.
Work on `CC(C)OC(=O)[C@@H](C)N[P@@](=O)(OC[C@H]1O[C@@H](n2ccc(=O)[nH]c2=O)[C@](C)(Cl)[C@@H]1O)Oc1ccccc1` [UPRIFOSBUVIR] yielded an EC50 (Hepatitis C virus [31]) of 320 nM.
